Assay results from article PMC8781450, “Isoquinoline Alkaloids as Protein Tyrosine Phosphatase Inhibitors from a Deep-Sea-Derived Fungus Aspergillus puniceus” (Marine Drugs, 2022).
In brackets after ≈: the same amount, converted by molar mass. Like-named read-outs stand apart in the source and are kept apart here.

Tests used:
CD45 = biological target: T1, CD45 (Homo sapiens, UniProt P08575); experiment: Protein phosphatase inhibition assay, CD45
T1 sequence (P08575 26-1306): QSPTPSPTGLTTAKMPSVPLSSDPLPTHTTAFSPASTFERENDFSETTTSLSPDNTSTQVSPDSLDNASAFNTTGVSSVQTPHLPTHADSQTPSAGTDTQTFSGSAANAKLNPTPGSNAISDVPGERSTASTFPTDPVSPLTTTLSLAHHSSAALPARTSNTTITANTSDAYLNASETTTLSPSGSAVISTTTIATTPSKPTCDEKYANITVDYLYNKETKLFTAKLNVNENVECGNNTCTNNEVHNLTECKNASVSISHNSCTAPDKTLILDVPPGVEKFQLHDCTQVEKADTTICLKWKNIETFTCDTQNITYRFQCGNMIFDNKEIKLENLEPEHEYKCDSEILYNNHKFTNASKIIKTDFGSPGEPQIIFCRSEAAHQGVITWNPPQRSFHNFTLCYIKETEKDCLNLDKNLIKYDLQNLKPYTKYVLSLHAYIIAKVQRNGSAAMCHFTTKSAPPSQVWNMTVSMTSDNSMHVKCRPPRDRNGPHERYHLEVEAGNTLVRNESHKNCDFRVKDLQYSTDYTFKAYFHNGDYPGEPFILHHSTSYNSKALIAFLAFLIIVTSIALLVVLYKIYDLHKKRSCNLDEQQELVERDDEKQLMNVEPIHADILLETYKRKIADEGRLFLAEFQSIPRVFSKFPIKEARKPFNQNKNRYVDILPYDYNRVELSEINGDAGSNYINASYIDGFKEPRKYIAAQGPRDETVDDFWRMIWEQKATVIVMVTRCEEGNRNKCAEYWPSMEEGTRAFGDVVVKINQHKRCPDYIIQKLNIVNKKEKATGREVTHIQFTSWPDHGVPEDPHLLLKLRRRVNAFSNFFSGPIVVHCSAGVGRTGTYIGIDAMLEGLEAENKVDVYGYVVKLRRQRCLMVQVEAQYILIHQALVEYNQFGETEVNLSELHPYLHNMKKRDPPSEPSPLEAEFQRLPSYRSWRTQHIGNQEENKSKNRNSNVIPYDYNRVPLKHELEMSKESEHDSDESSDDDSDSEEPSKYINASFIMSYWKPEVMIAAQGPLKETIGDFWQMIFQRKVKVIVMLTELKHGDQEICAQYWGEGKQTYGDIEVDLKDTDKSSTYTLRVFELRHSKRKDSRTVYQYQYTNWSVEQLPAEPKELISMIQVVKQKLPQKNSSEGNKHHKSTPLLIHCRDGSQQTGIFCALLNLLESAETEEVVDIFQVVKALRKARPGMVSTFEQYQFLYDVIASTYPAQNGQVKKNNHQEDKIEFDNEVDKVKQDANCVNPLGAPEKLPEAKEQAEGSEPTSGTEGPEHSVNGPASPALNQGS

PTP1B = biological target: T2, PTP1B (Homo sapiens, UniProt P18031); experiment: Protein phosphatase inhibition assay, PTP1B
T2 sequence (P18031 1-435): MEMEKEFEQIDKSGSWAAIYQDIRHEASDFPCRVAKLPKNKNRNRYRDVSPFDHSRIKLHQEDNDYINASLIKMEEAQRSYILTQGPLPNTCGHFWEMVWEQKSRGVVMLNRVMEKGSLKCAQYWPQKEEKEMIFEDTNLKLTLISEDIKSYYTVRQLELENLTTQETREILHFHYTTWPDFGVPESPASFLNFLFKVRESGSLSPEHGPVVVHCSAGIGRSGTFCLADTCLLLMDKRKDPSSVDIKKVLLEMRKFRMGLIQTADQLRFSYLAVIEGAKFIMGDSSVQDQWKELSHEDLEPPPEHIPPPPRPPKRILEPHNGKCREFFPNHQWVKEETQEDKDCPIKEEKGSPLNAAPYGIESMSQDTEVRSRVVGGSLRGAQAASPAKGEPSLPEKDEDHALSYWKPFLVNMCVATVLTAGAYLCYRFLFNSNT

[1] = Cytotoxicity by CCK-8 method; assay type: cell-based; conditions: human, H1975 lung adenocarcinoma cells, read-out: Cytotoxicity (IC50) H1975 Cell (after 24 h)
Method: Cytotoxic activity was evaluated using human lung adenocarcinoma cell line H1975 by CCK-8 method. Briefly, each of the test compounds was dissolved in DMSO and further diluted to give final concentrations of 80, 40, 20, 10, 5, 2.5, and 1.25 µg/mL, respectively. H1975 cells (5 × 10^3 cells/plate) were seeded in 96-well plates and treated with compounds at the indicated concentration for 24 h, and then 10 μL CCK-8 reagent was added to each well, and the plates were incubated at 37 °C for another 4 h. Next, the optical density was measured at a wavelength of 450 nm with the Bio-Rad (Hercules, CA, USA) microplate reader. Dose–response curves were generated, and the IC50 values were calculated from the linear portion of log dose–response curves.

LAR = LAR (Homo sapiens, UniProt P10586); experiment: Protein phosphatase inhibition assay, LAR
Sequence of LAR (P10586 30-1907): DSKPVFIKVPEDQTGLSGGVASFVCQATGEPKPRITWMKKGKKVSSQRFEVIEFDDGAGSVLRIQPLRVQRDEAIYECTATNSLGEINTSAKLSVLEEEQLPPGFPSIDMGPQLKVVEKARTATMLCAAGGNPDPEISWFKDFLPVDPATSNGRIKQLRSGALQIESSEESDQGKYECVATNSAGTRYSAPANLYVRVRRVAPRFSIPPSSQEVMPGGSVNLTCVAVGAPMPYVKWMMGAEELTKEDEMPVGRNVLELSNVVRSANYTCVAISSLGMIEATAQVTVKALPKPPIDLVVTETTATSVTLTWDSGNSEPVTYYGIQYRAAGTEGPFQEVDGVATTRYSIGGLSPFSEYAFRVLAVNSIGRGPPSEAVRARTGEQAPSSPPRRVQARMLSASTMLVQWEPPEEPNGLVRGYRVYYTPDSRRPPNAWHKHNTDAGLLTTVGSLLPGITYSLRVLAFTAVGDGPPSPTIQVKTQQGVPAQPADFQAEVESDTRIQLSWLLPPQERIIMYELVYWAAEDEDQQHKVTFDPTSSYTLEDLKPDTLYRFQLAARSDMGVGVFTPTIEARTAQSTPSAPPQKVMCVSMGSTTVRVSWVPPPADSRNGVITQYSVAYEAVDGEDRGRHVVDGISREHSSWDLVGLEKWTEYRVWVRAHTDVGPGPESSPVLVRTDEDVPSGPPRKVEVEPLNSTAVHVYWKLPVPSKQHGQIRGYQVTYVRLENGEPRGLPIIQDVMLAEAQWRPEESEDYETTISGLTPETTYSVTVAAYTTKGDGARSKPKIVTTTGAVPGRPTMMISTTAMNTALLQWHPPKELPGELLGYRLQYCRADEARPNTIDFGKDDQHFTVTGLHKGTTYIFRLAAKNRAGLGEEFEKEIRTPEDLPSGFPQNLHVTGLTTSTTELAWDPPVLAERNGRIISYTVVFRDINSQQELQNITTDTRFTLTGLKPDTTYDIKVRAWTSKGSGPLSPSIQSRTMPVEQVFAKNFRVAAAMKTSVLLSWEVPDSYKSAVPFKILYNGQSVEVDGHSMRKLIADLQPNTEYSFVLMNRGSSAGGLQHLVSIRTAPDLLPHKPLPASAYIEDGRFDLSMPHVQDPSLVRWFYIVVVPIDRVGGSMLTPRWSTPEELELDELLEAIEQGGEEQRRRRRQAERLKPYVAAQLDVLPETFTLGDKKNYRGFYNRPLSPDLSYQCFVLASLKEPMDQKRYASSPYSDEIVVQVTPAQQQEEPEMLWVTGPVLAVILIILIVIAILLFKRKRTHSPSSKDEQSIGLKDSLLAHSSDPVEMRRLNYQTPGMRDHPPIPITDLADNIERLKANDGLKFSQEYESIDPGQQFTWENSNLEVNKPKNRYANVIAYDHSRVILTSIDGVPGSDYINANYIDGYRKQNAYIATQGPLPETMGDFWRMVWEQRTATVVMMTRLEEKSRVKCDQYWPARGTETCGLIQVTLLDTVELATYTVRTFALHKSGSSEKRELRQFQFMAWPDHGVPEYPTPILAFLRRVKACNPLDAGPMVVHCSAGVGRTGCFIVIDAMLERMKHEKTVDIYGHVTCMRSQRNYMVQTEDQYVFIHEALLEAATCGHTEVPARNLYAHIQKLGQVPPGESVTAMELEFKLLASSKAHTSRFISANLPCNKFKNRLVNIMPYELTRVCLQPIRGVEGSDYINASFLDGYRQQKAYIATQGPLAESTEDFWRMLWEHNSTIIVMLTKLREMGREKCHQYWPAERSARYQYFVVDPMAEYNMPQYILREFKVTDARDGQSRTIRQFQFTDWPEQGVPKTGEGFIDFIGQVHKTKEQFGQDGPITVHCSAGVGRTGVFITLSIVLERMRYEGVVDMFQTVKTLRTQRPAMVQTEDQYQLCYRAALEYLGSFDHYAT

SHP1 = SHP1 (Homo sapiens, UniProt P29350); experiment: Protein phosphatase inhibition assay, SHP1
Sequence of SHP1 (P29350 whole entry): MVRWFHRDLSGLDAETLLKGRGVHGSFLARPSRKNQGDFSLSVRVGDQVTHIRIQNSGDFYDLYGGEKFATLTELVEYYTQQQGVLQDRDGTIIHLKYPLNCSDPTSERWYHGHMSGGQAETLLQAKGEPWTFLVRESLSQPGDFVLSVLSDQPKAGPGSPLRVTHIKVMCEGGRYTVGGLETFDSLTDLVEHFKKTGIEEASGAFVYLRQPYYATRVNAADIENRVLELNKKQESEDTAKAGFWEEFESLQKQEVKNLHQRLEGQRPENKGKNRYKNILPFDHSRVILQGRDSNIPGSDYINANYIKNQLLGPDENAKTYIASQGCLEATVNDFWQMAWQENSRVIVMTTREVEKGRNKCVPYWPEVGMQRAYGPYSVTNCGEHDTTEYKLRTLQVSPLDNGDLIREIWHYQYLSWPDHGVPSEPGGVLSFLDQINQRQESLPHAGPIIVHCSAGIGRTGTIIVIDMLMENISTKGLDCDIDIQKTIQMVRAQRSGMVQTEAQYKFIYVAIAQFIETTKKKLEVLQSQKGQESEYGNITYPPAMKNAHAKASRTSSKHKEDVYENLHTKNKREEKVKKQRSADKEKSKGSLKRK

TCPTP = biological target: T3, TCPTP (Homo sapiens, UniProt P17706); experiment: Protein phosphatase inhibition assay, TCPTP
T3 sequence (P17706 1-415): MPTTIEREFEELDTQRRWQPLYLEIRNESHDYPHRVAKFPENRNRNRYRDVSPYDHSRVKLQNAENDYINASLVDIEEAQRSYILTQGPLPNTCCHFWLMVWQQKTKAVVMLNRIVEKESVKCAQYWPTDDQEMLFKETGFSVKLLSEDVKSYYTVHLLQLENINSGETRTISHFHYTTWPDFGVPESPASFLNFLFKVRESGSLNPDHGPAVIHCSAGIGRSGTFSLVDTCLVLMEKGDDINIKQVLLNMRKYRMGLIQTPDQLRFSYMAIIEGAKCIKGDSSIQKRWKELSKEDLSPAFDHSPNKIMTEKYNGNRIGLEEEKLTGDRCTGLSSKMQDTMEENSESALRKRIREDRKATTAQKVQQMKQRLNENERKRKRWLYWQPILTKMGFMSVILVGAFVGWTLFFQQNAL

Escherichia coli = experiment: Antibacterial 2-fold dilution assay, E. coli; conditions: 12 h, read-out: MIC, Escherichia coli
Method: (§1) Antibacterial activities of 1–14 against E. coli, S. aureus and MRSA were evaluated using the 2-fold dilution assay in 96-microwell plates. Briefly, all the indicator bacteria were cultured on Luria−Bertani (LB) agar plates at 37 °C for 12 h, and then a single colony was picked into LB liquid medium and cultivated on a rotary shaker at 37 °C for 12 h. Then, the bacterial suspensions with LB medium were diluted until the difference of the OD600 values between the bacterial suspensions and the medium was 0.01~0.02. […] The 96-well plates were incubated at 37 °C for 12 h. MIC value was determined as the lowest concentration with no visible bacterial growth. Ampicillin was used as the positive control and DMSO as the negative control. All experiments were performed three times.

Staphylococcus aureus = experiment: Antibacterial 2-fold dilution assay, S. aureus; conditions: 12 h, read-out: MIC, Staphylococcus aureus
Method: as §1

[2] = tested on: methicillin-resistant S. aureus (MRSA); experiment: Antibacterial 2-fold dilution assay, MRSA; conditions: Staphylococcus aureus, 12 h, read-out: MIC, methicillin-resistant S. aureus (MRSA)
Method: as §1

Compound: CC(=O)c1ccc(NC2=C(Cl)C(=O)c3ccccc3C2=O)cc1 [AACQ, 2-[(4-acetylphenyl)amino]-3-chloronaphthoquinone, reference compound]
- IC50 (CD45; read-out: Inhibitory Effect against Phosphatases (IC50) CD45): 0.29 µM

Compound: COc1cc(O)c2cnccc2c1 [Compound 1, 6-methoxy-8-hydroxy-isoquinolin]
- IC50 (PTP1B): 182 µM
- IC50 (CD45): 29.7 µM
- IC50 at 24 h [1]: 76.2 µM
- IC50 (LAR): 100 µM
- IC50 (SHP1): 38.3 µM
- IC50 (TCPTP): 197 µM

Compound: COc1cc2ccncc2c(O)c1C [Compound 2, 6-methoxy-7-methyl-8-hydroxy-isoquinolin]
- IC50 (PTP1B): > 200 µM
- IC50 (CD45): > 200 µM
- IC50 at 24 h [1]: > 80 µM
- IC50 (LAR): > 200 µM
- IC50 (SHP1): > 200 µM
- IC50 (TCPTP): > 200 µM

Compound: COc1cc2ccncc2c(O)c1Cc1c(OC)cc2ccncc2c1O [Compound 3, Puniceusine C]
- IC50 (PTP1B): 64.5 µM
- IC50 (CD45): 8.4 µM
- IC50 at 24 h [1]: 71.3 µM
- IC50 (LAR): 21.9 µM
- IC50 (SHP1): 20.7 µM
- IC50 (TCPTP): > 200 µM

Compound: COc1cc2ccncc2c(O)c1Cc1c(OC)cc(O)c2cnccc12 [Compound 4, Puniceusine D]
- IC50 (PTP1B): 150 µM
- IC50 (CD45): 5.6 µM
- IC50 at 24 h [1]: 11 µM
- MIC (Escherichia coli): 100 µg/mL (≈ 276 µM)
- IC50 (SHP1): 130 µM
- IC50 (TCPTP): > 200 µM

Compound: COc1cc2ccncc2c(O)c1Cc1c(OC)c(C)c(O)c2cnccc12 [Compound 5, Puniceusine E]
- IC50 (PTP1B): 200 µM
- IC50 (CD45): 103 µM
- IC50 at 24 h [1]: > 80 µM
- IC50 (LAR): > 200 µM
- IC50 (SHP1): 145 µM
- IC50 (TCPTP): > 200 µM

Compound: COc1cc2ccncc2c(O)c1CC(C)C(=O)O (stereo not drawn) [Compound 6, Puniceusine F]
- IC50 (PTP1B): > 200 µM
- IC50 (CD45): > 200 µM
- IC50 at 24 h [1]: > 80 µM
- IC50 (LAR): > 200 µM
- IC50 (SHP1): 200 µM
- IC50 (TCPTP): > 200 µM

Compound: COc1cc2ccncc2c2c(C)c(O)c(C)cc12 [Compound 7, Puniceusine G]
- IC50 (PTP1B): > 200 µM
- IC50 (CD45): > 200 µM
- IC50 at 24 h [1]: > 80 µM
- IC50 (LAR): > 200 µM
- IC50 (SHP1): > 200 µM
- IC50 (TCPTP): > 200 µM

Compound: COc1cc2ccncc2c(O)c1Cc1c(O)cc(O)c(OC)c1C(=O)C(C)=O [Compound 8, Puniceusine H]
- IC50 (PTP1B): 180 µM
- IC50 (CD45): 49 µM
- IC50 at 24 h [1]: > 80 µM
- IC50 (LAR): > 200 µM
- IC50 (SHP1): 100 µM
- IC50 (TCPTP): > 200 µM

Compound: COc1cc2ccncc2c(O)c1Cc1c(O)cc(O)c2c1[C@@H](C)OC2 [Compound 9, Puniceusine I]
- IC50 (PTP1B): 68.8 µM
- IC50 (CD45): 27.2 µM
- IC50 at 24 h [1]: > 80 µM
- IC50 (LAR): > 200 µM
- IC50 (SHP1): 41.8 µM
- IC50 (TCPTP): 57.7 µM

Compound: CCC(=O)c1c(C)c(O)c(Cc2c(OC)cc3ccncc3c2O)c(O)c1O [Compound 10, Puniceusine J]
- IC50 (PTP1B): > 200 µM
- IC50 (CD45): 30.8 µM
- IC50 at 24 h [1]: > 80 µM
- IC50 (LAR): 100 µM
- IC50 (SHP1): > 200 µM
- IC50 (TCPTP): > 200 µM

Compound: COc1cc2ccncc2c(O)c1Cc1c(O)c(OC)c2c(c1O)C(=O)O[C@H]2[C@@H](C)O [Compound 11, Puniceusine K]
- IC50 (PTP1B): 190 µM
- IC50 (CD45): 100 µM
- IC50 at 24 h [1]: > 80 µM
- IC50 (LAR): > 200 µM
- IC50 (SHP1): 145 µM
- IC50 (TCPTP): > 200 µM

Compound: CCc1cc(O)c(Cc2c(OC)cc3ccncc3c2O)c(=O)o1 [Compound 12, Puniceusine L]
- IC50 (PTP1B): 170 µM
- IC50 (CD45): 38.5 µM
- IC50 at 24 h [1]: > 80 µM
- IC50 (LAR): 150 µM
- IC50 (SHP1): 117 µM
- IC50 (TCPTP): > 200 µM

Compound: CCc1oc(=O)c(Cc2c(OC)cc3ccncc3c2O)c(O)c1C [Compound 13, Puniceusine M]
- IC50 (PTP1B): 37.9 µM
- IC50 (CD45): 11.1 µM
- IC50 at 24 h [1]: > 80 µM
- IC50 (LAR): 32.6 µM
- IC50 (SHP1): 40.3 µM
- IC50 (TCPTP): > 200 µM

Compound: CCCCC(CC)COC(=O)CC[n+]1ccc2cc(OC)c(C)c(O)c2c1 (stereo not drawn) [Compound 14, Puniceusine N]
- MIC (Staphylococcus aureus): 100 µg/mL
- IC50 (PTP1B): > 200 µM
- IC50 (CD45): 200 µM
- IC50 at 24 h [1]: > 80 µM
- IC50 (LAR): > 200 µM
- MIC [2]: 100 µg/mL
- MIC (Escherichia coli): 100 µg/mL
- IC50 (SHP1): > 200 µM
- IC50 (TCPTP): > 200 µM

Compound: [Na+].[Na+].[Na+].[O]=[V]([O-])([O-])[O-] [Na3VO4, reference compound]
- IC50 (SHP1; read-out: Inhibitory Effect against Phosphatases (IC50) SHP1): 4.4 µM
- IC50 (TCPTP; read-out: Inhibitory Effect against Phosphatases (IC50) TCPTP): 2.4 µM
